# According to US20240285555A1, “COMPOSITIONS FOR THE TREATMENT OF COPPER DEFICIENCY AND METHODS OF USE” (priority 2018, published 2024):
# Tests used:
# [1] = system: BY4741 WT cells; test: Respiratory growth of wild type yeast with copper chelator BCS; format: cell-based, Saccharomyces cerevisiae; conditions: 10 nM ES co-treatment with 20 μM BCS
# Protocol: The cell density was measured spectrophotoretrically at the indicated time points at 600 nm. The data are representative of two independent experiments.
# [2] = system: coa6Δpic2Δ cells; test: Respiratory growth rescue of coa6Δpic2Δ yeast; format: cell-based, Saccharomyces cerevisiae; conditions: ES supplementation
# Protocol: To further corroborate that ES increases mitochondrial copper levels by actively transporting extracellular copper into the cells, copper availability in the extracellular compartment was decreased by co-treatment of ES with a known copper chelator, bathocuproine disulfonate (BCS). […] To determine whether ES is able to bypass a mitochondrial copper transporter, Pic2, ES supplementation in pic2Δ and coa6Δpic2Δ cells was performed.
# [3] = system: sco1Δ cells; test: Respiratory growth rescue of sco1Δ yeast; format: cell-based, Saccharomyces cerevisiae; conditions: non-fermentable media, 37° C.
# Protocol: (§1) Yeast Strains and Culture Conditions. The authenticity of yeast strains was confirmed by PCR as well as by replica plating on dropout plates. Yeast cells were cultured in standard YP growth media including YPD (1% yeast extract, 2% peptone and 2% glucose), YPGal (2% galactose), YPGE (3% glycerol+1% ethanol), or synthetic media (SC glucose). For qualitative growth measurement, 10-fold serial dilutions of overnight cultures were spotted on YPD or YPGE plates and incubated at 30° C. and 37° C. for the indicated period. Growth in liquid media was measured spectrophotometrically at 600 nm.
# (§2) ES Rescues Many Different Yeast Mutants with Impaired Copper Metabolism. To test the specificity of ES mediated rescue, a number of yeast mutants of genes required for maintaining cellular and mitochondrial copper homeostasis were shortlisted. Genes were prioritized based on their evolutionary conservation, presence of pathogenic mutations in humans, and/or the existence of a related mouse phenotype (Table 3, shown below). […] Most of the yeast mutants were rescued with ES supplementation, albeit to different degrees, reflecting their distinct roles in cellular and mitochondrial copper homeostasis.
# [4] = system: yeast ccc2Δ; test: Respiratory growth rescue of ccc2Δ yeast; format: cell-based, Saccharomyces cerevisiae; conditions: non-fermentable media, 37° C.
# Protocol: as §1
# as §2, with “homeostasis. […]” for “homeostasis.”
# [5] = system: Ctr1^−/− H9c2 cardiomyocytes; test: Intracellular copper levels in Ctr1 knockout H9c2 cardiomyocytes (ICP-MS); format: cell-based, rat; conditions: 5 nM ES
# Protocol: FIGS. 4A and 4B illustrates the effects of ES supplementation in increasing copper levels (A) and cytochrome c oxidase subunit, COX1, and superoxide dismutase, SOD1 levels (B) in Ctrl1^−/− H9c2 rat cardiomyocytes. ATP5A is a subunit of mitochondrial ATP synthase and was used as a loading control for the Western blotting experiment.
# Mammalian Cell Culture. The human control MCH46 and SCO2 patient fibroblasts as well as the rat H9c2 control and Ctr1^−/− cardiomyocytes were cultured in high glucose Dulbecco's modified Eagle's medium (DMEM) supplemented with 10% fetal bovine serum (Sigma) and 1 mM sodium pyruvate (Life Technologies). […] Whole cell protein was extracted in lysis buffer (BP-115, Boston BioProducts) supplemented with protease inhibitor cocktail (Roche Diagnostics) and the protein concentrations were determined by BCA assay (Thermo Scientific). […]
# Cellular and Mitochondrial Copper Measurements. Cellular and mitochondrial copper levels were measured using the Perkin Elmer DRC II Inductively Coupled Plasma-Mass Spectrometer (ICP-MS). […] Samples were diluted in ultrapure metal-free water (TraceSELECT, Sigma) and analyzed by ICP-MS. […] Copper concentrations in mammalian cells were also measured by ICP-MS. […]
# [6] = system: Ctr1^−/− zebrafish embryos; test: Pigmentation defect in embryos from Ctr1 heterozygous zebrafish crosses; format: in vivo
# Protocol: Zebrafish Experiments. […] Morpholino-based experiments were performed.
# ES Supplementation Rescues Copper Deficiency Phenotypes in Zebrafish Models. To determine whether ES can rescue phenotypes associated with copper deficiency in an intact developing vertebrate animal model, zebrafish embryos with a null mutation in the gene encoding the plasma membrane copper importer Ctr1 were utilized. Zebrafish were chosen because of the ability to quickly monitor the pigmentation defect that arises due to the copper requirement of tyrosinase, an enzyme that catalyzes the critical step in melanin biosynthesis. Wild type zebrafish embryos have a characteristic melanin pigmentation pattern visible at 48 hpf. […] […] To determine whether ES can rescue the observed CcO assembly defect, clutches of embryos were grown from heterozygous Ctr1 crosses in the presence of ES until 10 dpf and levels of Cox1 in their mitochondrial extracts were measured.
# [7] = system: zebrafish embryos; test: Survival of zebrafish embryos treated with ES, copper and combinations; format: in vivo
# From the text: NT, No treatment; ES, Elesclomol.
# [8] = multiple human clinical trials; cited from earlier work
structure (smiles),measurement,setting,value
"CN(NC(=O)CC(=O)NN(C)C(=S)c1ccccc1)C(=S)c1ccccc1 [ES, elesclomol]",rescue of BCS-reduced respiratory growth,[1],rescued
same,rescue of respiratory growth,[2],did rescue
same,rescue of respiratory growth,[3],failed to rescue
same,rescue of respiratory growth,[4],rescue
same,intracellular copper levels,[5],restored
same,melanin pigmentation at 48 hpf,[6]; 10 nM ES from 3 hpf,all of the ES treated embryos from the same crosses were pigmented
same,rescue of the pigmentation defect,[6]; 100 nM ES or the equivalent dose of copper,rescue of the pigmentation defect
same,lethality,[7]; co-supplementation of 100 nM ES with 100 nM of copper,100%
same,maximal tolerable dose,[7]; zebrafish embryos,100 nM
same,toxicity profile,[8],favorable toxicity profile
